Test results: ChEMBL document CHEMBL1201862, “PubChem BioAssay data set” (2004)
Each block holds one compound with its values, some of them ahead of it. Active and inactive are the calls of the source.

Columns and labels:
[1] = target: 5-hydroxytryptamine receptor 2A (Mus musculus, UniProt P35363); assay type: functional, cell-based;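 further: CHO-K1 cells with tagged receptor and beta-arrestin; agonist potency measured as compound-induced activation of the receptor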
Mu-type opioid receptor = Mu-type opioid receptor (Homo sapiens, UniProt P35372); assay type: functional, cell-based;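 further: U2OS cells with beta-arrestin recruitment to OPRM1 by beta-gal complementation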
Kallikrein-7 = Kallikrein-7 (Homo sapiens, UniProt P49862); assay: Fluorescence Intensity-based biochemical primary high throughput dose response assay to identify activators of kallikrein-7 (K7) zymogen.
[2] = target: T1, Trace amine-associated receptor 1 (Homo sapiens, UniProt Q96RJ0); assay: Fluorescence-based cell-based high throughput dose response assay to identify agonists of the human trace amine associated receptor 1 (TAAR1).; assay type: functional
T1 sequence (Q96RJ0 whole entry): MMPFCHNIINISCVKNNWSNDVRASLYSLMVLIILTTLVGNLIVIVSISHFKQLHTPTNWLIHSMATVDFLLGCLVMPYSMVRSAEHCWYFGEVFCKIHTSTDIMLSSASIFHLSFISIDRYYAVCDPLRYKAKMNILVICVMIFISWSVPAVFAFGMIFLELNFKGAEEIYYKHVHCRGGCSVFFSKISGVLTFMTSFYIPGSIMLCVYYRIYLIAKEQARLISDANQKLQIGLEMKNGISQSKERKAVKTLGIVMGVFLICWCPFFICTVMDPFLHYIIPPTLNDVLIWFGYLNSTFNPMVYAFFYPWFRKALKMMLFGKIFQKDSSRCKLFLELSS

cells [3] = assay type: functional, cell-based
[4] = target: T1, Trace amine-associated receptor 1; assay: Counterscreen for agonists of the human trace amine associated receptor 1 (hTAAR1): Fluorescence-based cell-based high throughput dose response assay to identify hTAAR1 agonist that also desensitize TAAR1 receptor response.; assay type: functional
cells [5] = assay type: functional, cell-based; remark: listed apart in the source
[6] = ZM109 Env clade C HIV-1 fusion inhibitors, dose response, HeLa effector, CEM target cells, luciferase, cherry-pick (AID 652058); assay type: functional, cell-based
[7] = off-target signal loss in HeLa-CEM21 co-culture – HeLa F-luc CTL cells, cherry-picked, counter-screen for HIV-1 Env fusion inhibitor project, dose response (AID 652040); assay type: functional, cell-based;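 further: potency for signal decrease marking cytotoxic or nonspecific inhibition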
[8] = inhibitors of clade B AD8 Env fusion, dose response, cell-based, cherry-pick (AID 652062); assay type: functional;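 further: luciferase signal from cell-cell fusion driven by HIV-1 clade B AD8 Env; potency is for inhibitors of fusion seen as a drop in luminescence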
[9] = inhibitors of HIV Env-driven cell fusion, dose response, cherry-pick (AID 652057); assay type: functional, cell-based
[10] = P. falciparum Dd2 growth inhibitors, dose response, SYBR Green, dry powder samples, set 9 (AID 1159568); assay type: functional, cell-based
Protein Tat = target: T2, Protein Tat (Human immunodeficiency virus type 1 group M subtype B (isolate HXB2)(HIV-1), UniProt P04608); assay type: functional;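 further: tat binding to TAR RNA read out by fluorescence polarization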
T2 sequence (P04608 whole entry): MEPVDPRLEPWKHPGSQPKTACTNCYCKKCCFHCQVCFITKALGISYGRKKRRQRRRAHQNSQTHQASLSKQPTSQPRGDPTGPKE

[11] = THP-1 cell cytotoxicity, dose response, cytotoxicity control for Vif-APOBEC3G degradation inhibitor project, THP-1 cells (AID 1117359); assay type: functional; details: Human immunodeficiency virus 1, THP-1
[12] = target: T3, Ubiquitin carboxyl-terminal hydrolase BAP1 (Homo sapiens, UniProt Q92560); assay: BAP1 deubiquitinase inhibitors, dose response, biochemical (AID 714); assay type: functional
T3 sequence (Q92560 whole entry): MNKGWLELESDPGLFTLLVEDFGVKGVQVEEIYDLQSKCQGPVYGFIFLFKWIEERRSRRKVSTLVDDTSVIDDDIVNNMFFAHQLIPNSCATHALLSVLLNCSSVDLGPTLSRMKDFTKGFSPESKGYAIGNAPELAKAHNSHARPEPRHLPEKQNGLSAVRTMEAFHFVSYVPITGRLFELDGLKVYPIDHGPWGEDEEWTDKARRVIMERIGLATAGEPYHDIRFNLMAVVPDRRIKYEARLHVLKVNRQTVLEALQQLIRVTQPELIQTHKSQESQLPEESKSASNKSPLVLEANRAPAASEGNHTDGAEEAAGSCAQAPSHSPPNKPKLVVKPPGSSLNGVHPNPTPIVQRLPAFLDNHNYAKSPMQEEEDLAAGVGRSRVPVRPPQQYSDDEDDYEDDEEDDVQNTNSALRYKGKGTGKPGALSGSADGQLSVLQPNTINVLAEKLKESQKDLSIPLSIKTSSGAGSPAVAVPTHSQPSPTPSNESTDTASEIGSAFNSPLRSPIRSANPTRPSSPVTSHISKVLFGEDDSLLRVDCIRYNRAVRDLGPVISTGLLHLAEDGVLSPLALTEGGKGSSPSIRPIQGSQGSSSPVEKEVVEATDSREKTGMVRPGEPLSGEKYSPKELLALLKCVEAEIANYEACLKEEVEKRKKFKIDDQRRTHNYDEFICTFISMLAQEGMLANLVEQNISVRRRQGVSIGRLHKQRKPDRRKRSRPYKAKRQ

[13] = target: Protein-tyrosine kinase 2-beta (Homo sapiens, UniProt Q14289);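 further: potency of inhibitors of PYK2 kinase phosphorylation of poly-GT substrate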
[14] = target: T4, Microphthalmia-associated transcription factor (Homo sapiens, UniProt O75030); assay: TRPM1 promoter luciferase signal decrease, dose response, MITF inhibitor project, cell-based, SK-MEL-5, cherry-picked, set 3 (AID 493073); assay type: functional
T4 sequence (O75030 whole entry): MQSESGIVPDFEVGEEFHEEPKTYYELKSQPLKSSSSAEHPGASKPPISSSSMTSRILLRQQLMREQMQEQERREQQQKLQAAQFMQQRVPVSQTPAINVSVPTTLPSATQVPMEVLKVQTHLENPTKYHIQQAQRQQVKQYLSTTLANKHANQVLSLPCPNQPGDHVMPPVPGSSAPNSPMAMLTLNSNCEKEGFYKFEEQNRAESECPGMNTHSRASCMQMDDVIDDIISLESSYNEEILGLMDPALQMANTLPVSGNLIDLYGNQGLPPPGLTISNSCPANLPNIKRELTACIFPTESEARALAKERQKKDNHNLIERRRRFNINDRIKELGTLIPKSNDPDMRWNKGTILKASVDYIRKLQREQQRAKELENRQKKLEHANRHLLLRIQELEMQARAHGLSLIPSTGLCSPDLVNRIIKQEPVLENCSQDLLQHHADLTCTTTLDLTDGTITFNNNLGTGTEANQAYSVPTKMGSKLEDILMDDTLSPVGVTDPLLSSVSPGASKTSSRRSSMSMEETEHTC

[15] = inhibitors of intracellular T. cruzi replication, confirmation, NIH3T3 host cells, beta-gal luminescence (AID 2044); assay type: functional, cell-based;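 further: intracellular parasites grown in NIH/3T3 mouse fibroblasts as host cells; luminescent beta-galactosidase reporter signal from transgenic T. cruzi replicating inside host cells; inhibitors lower the luminescence signal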
cells [16] = assay: cells
[17] = cytotoxicity toward NIH3T3 fibroblasts, dose response, counter-screen, cell-based, ATP luminescence, mouse fibroblasts (AID 2010); assay type: functional;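 further: cells exposed to compound for about 90 hours before reading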
Protein Wnt-3a = Protein Wnt-3a (Mus musculus, UniProt P27467); assay: Wnt3a-driven reporter signaling inhibition, dose response, selectivity assay for Gli-SUFU antagonist project, Wnt-LIGHT cells, luminescence (AID 651570); assay type: functional; details: read-out: IC50_Mean;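 further: Wnt-LIGHT reporter cells stimulated with conditioned medium from Wnt3a-producing cells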
[18] = NIH-3T3 fibroblast cytotoxicity, dose response, cytotoxicity control, cell-based, fluorescence, Alamar Blue, secondary assay (AID 2327); assay type: functional;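 further: NIH-3T3 mouse fibroblasts cultured with fluconazole at 8 µg/mL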
[19] = C. albicans growth with fluconazole, confirmation, fluorescence, retest (AID 2467); assay type: functional, cell-based
[20] = target: T5, Calpain-2 catalytic subunit (Sus scrofa, UniProt P43367); assay: pig calpain II inhibitor potency, dose response, biochemical, fluorogenic peptide substrate (AID 1420); assay type: functional
T5 sequence (P43367 whole entry): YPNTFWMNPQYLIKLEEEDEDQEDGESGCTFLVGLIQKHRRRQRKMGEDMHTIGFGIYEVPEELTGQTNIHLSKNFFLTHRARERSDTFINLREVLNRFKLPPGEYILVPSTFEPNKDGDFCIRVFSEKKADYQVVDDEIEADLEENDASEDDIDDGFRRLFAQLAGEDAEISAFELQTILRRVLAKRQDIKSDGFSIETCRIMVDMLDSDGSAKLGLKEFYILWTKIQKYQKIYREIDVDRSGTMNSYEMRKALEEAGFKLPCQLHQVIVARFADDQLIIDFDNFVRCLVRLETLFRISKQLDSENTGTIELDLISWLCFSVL

[21] = LGR2 antagonists, dose response, cell-based, HEK293, CRE-luciferase reporter, cherry pick, set 2 (AID 743343); assay type: functional;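 further: transfected cells were stimulated with diluted bursicon conditioned medium after compound addition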
Fatty acid synthase [22] = target: T6, Fatty acid synthase (Homo sapiens, UniProt P49327); assay: FAS thioesterase domain inhibitors, dose response, biochemical, endpoint fluorescence intensity, uHTS hits (AID 624327); assay type: functional;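 further: fluorescence from hydrolysis of an O-methyl fluorescein acyl ester substrate by the enzyme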
[23] = HepG2 cell cytotoxicity, dose response, cytotoxicity control, plate reader, cherry-pick, antagonist series (AID 743416); assay type: functional, cell-based
Fatty acid synthase [24] = target: T6, Fatty acid synthase; assay: FAS thioesterase domain inhibitors, dose response, biochemical, kinetic fluorescence intensity (AID 624326); assay type: functional;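 further: rate of fluorescence rise from hydrolysis of a fluorogenic O-methyl fluorescein ester substrate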
[25] = MC4R antagonists, dose response, counter-screen for LGR2 antagonist project, cell-based, plate reader, cherry pick (AID 743444); assay type: functional;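 further: transfected HEK 293 cells stimulated with alpha-MSH peptide; potency of inhibitors of the alpha-MSH evoked signal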

Chain of 5-hydroxytryptamine receptor 2A (P35363 whole entry): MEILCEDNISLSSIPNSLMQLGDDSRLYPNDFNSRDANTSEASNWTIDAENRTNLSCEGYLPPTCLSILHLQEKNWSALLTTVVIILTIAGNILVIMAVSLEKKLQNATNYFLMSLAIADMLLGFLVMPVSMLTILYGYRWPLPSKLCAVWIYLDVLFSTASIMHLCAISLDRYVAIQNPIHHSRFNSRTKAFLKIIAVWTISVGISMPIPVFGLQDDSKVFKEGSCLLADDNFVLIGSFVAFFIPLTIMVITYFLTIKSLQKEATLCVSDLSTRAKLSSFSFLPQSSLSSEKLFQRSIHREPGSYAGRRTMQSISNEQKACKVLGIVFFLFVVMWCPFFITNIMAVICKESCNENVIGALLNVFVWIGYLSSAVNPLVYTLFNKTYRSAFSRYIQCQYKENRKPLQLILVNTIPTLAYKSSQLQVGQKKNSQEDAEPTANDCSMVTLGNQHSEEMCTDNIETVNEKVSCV
Chain of Protein-tyrosine kinase 2-beta (Q14289 whole entry): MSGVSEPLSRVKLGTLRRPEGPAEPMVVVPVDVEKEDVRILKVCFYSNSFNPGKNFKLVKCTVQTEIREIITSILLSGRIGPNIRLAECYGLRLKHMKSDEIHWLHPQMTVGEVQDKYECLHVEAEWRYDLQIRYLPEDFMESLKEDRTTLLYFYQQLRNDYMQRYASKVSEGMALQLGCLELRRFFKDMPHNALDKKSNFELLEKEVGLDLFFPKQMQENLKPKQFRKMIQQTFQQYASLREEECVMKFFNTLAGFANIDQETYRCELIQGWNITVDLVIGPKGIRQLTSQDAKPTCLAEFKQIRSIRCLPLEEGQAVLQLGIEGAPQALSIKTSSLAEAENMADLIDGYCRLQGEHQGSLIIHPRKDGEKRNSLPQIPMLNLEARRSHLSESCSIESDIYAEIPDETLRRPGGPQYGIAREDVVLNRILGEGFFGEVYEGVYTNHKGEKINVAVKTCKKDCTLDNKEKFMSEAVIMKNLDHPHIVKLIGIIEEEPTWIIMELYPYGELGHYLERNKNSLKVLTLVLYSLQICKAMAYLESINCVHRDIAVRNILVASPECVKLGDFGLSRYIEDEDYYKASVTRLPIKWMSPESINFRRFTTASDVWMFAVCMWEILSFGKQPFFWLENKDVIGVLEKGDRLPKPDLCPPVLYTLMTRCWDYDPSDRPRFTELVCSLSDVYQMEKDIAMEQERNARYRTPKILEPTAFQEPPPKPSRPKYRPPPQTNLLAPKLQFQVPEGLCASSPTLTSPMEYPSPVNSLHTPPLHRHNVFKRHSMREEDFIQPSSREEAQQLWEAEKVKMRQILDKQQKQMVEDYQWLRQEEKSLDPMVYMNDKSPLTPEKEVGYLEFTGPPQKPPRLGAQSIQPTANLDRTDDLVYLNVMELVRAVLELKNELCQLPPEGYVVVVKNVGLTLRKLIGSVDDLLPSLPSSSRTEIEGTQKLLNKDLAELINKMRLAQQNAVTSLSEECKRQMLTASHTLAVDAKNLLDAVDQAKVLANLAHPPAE
Chain of Mu-type opioid receptor (P35372 whole entry): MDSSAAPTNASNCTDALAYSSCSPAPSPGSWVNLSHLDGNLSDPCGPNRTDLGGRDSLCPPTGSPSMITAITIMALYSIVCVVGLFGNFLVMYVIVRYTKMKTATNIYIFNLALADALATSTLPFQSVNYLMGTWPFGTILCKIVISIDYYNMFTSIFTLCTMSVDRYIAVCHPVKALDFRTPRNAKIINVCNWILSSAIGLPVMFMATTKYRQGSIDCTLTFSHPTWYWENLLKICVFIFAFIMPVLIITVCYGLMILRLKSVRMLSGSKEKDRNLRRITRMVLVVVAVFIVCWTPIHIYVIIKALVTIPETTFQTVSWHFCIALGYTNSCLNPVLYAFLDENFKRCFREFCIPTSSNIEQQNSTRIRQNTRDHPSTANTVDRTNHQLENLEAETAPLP
T6 sequence (P49327 whole entry, the tested form may be a part): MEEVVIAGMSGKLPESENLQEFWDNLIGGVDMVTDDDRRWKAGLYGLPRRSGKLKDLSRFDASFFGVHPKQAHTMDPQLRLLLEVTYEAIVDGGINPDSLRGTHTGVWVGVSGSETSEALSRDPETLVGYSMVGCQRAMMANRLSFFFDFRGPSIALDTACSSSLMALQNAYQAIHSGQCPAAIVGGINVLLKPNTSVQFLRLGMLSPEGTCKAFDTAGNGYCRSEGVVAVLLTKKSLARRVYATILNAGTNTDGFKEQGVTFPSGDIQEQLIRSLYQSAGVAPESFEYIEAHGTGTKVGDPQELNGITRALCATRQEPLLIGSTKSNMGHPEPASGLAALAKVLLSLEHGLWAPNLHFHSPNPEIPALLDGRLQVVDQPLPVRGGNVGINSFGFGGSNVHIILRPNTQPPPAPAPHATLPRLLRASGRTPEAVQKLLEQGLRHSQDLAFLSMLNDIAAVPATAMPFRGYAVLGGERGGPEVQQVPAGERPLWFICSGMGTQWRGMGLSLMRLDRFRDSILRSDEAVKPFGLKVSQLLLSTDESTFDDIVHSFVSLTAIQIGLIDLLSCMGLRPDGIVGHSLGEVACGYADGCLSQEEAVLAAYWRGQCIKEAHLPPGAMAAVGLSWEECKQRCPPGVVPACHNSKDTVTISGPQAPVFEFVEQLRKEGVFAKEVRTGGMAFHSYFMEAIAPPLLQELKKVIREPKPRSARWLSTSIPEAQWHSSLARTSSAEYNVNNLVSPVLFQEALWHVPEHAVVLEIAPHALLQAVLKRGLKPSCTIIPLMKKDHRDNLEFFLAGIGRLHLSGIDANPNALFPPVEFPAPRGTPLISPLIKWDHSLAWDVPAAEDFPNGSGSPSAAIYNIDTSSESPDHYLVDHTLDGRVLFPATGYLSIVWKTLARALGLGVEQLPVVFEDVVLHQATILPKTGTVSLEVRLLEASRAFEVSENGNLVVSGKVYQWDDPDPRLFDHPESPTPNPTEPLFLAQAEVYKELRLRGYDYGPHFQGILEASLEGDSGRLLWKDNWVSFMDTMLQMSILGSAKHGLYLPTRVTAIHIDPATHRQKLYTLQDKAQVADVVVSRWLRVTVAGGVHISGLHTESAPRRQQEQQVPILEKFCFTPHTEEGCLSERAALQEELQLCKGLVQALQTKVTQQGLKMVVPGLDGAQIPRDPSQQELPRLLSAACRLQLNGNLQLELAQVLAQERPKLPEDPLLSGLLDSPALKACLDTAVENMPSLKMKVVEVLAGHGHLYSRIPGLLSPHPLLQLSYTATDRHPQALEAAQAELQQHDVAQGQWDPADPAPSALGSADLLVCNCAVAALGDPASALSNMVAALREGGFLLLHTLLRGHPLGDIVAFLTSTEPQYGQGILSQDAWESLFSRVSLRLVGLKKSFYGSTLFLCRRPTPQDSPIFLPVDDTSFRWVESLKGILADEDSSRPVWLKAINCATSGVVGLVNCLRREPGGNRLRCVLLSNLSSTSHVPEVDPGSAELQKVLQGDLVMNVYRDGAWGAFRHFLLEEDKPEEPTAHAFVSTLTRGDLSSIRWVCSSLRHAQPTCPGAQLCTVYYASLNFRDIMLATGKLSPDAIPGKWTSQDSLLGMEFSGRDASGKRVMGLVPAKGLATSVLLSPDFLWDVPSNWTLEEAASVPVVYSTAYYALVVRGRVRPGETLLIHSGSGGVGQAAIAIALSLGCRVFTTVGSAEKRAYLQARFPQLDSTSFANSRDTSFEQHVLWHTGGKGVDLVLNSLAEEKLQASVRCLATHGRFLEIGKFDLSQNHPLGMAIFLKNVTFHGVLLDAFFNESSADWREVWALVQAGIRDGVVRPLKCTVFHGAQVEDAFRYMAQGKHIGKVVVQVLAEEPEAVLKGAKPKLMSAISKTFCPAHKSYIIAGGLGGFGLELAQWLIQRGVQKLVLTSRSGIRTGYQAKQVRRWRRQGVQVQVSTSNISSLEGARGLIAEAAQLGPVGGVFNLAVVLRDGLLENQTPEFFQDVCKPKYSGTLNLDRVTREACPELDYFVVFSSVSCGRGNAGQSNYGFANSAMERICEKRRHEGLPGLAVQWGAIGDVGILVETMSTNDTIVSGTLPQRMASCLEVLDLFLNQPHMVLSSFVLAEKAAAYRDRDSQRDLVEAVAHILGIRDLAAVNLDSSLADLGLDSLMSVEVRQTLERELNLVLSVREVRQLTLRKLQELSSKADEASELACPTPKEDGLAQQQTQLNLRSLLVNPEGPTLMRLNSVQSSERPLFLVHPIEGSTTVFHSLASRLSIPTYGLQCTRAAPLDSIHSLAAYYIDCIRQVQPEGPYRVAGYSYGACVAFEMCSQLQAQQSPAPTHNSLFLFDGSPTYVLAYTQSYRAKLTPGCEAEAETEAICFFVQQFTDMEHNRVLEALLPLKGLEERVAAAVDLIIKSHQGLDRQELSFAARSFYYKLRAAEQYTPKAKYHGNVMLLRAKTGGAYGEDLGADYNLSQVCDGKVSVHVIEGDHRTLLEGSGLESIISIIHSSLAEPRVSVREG
Chain of Kallikrein-7 (P49862 whole entry): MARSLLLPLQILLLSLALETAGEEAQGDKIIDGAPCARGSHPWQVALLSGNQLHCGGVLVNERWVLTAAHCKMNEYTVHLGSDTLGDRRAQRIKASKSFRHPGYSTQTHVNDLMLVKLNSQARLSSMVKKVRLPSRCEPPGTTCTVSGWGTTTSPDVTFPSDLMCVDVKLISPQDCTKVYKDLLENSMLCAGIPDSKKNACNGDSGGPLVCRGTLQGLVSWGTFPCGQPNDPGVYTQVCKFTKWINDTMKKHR
Chain of Protein Wnt-3a (P27467 whole entry): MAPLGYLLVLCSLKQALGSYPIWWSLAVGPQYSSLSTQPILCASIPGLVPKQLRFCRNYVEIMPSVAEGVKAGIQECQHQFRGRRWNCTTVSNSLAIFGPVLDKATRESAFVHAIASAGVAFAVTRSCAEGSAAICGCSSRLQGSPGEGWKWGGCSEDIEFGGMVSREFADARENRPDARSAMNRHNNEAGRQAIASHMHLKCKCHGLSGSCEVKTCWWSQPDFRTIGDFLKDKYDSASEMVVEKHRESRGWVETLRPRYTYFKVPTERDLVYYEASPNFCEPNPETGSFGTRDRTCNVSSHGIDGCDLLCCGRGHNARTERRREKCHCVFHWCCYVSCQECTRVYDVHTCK

SMILES: Cc1ccn2c(=O)c(C(=O)NCCC3=CCCCC3)c(O)nc2c1
EC50 [2]: 3.44 µM (active)
IC50 (cells [3]): > 29.9 µM (inactive)
IC50 [4]: > 29.9 µM (inactive)
EC50 (cells [5]): > 29.9 µM (inactive)

SMILES: OC(COCc1cccs1)CN1CCN(c2ccccn2)CC1 (stereo not drawn)
EC50 [1]: 0.637 µM (active)
EC50 (Mu-type opioid receptor): 92.5 µM (inactive)

SMILES: Cc1ccc(CN2CCN(c3ccccn3)CC2)s1
EC50 [1]: 0.0593 µM (active)
EC50 (Mu-type opioid receptor): 92.5 µM (inactive)

SMILES: CC1(C(=O)NCc2cccc3ccccc23)CCN1Cc1ccc(-c2ccccc2)o1 (stereo not drawn)
AC50 [6]: 4.71 µM (active)
AC50 [7]: 4.07 µM (active)
AC50 [8]: 2.57 µM (active)
AC50 [9]: 2.31 µM (active)

SMILES: COc1ccc(NC(=O)N(C)C[C@H]2Oc3c(NC(=O)CCCCCC(=O)Nc4ccccc4N)cccc3C(=O)N([C@H](C)CO)C[C@H]2C)cc1
AC50 [10]: 0.304 µM (active)

SMILES: COc1ccccc1C#Cc1ccc([C@@H]2[C@@H](CO)N3CCCCN(C(=O)C4CCC4)C[C@H]23)cc1
AC50 [10]: 8.41 µM (active)

SMILES: O=C(O)/C=C/C(=O)NCCc1ccc(Cl)cc1
EC50 [2]: 51.7 µM (inactive)
IC50 (cells [3]): > 29.9 µM (inactive)
IC50 [4]: > 29.9 µM (inactive)
EC50 (cells [5]): > 29.9 µM (inactive)

SMILES: CCOc1ccc(N(CC(=O)NCCSCc2ccc(Cl)cc2)S(C)(=O)=O)cc1
AC50 [6]: 9.3 µM (active)
AC50 [7]: 9.39 µM (active)
AC50 [8]: 5.88 µM (active)
AC50 [9]: 5.62 µM (active)

SMILES: CCOc1ccc(-c2cc(C)[n+](CCO)c(-c3ccc(OCC)cc3)c2)cc1.[O-][Cl+3]([O-])([O-])[O-]
AC50 [14]: 11.1 µM (active)
EC50 [15]: < 0.1 µM (active)
EC50 (cells [16]): 0.079 µM (active)
EC50 [17]: > 60 µM (inconclusive)
IC50 (Protein Wnt-3a): 50 µM (inactive)
EC50 [18]: > 160 µM (inactive)
EC50 [19]: > 38 µM (not active)

SMILES: O=C(NC1CCCCC1)C(=S)NCCc1ccccc1
EC50 [2]: 2.41 µM (active)
IC50 (cells [3]): > 29.9 µM (inactive)
IC50 [4]: 5.49 µM (active)
EC50 (cells [5]): > 29.9 µM (inactive)

SMILES: O=C(NCc1ccco1)c1cc2n(n1)C(C(F)(F)F)CC(c1ccc(Br)cc1)N2 (stereo not drawn)
IC50 [12]: > 50 µM (not active)

SMILES: CCOc1ccc(NC2=NC(=O)S/C2=C\c2ccc(Cl)cc2)cc1
IC50 [20]: > 50 µM (not active)
IC50 [13]: 2.79 µM (active)

SMILES: O=Cc1cn(Cc2cccc([N+](=O)[O-])c2)c2ccccc12
AC50 [21]: 1.28 µM (active)
IC50 (Fatty acid synthase [22]): 12 µM (active)
AC50 [23]: 0.625 µM (active)
IC50 (Fatty acid synthase [24]): 10.9 µM (active)
AC50 [25]: 0.801 µM (active)

SMILES: CCC(/C=C(\O)c1ccncc1)=N\c1ccc(O)cc1
IC50 (Protein Tat): 18.3 µM (inconclusive)
CC50 [11]: > 40 µM (active)

Further lines, with some results ahead:

EC50 [1]: 0.865 µM (active)
EC50 (Mu-type opioid receptor): 92.4 µM (inactive)
SMILES: CC(=O)c1ccc(OCC(O)CN2CCN(c3ccccn3)CC2)cc1 (stereo not drawn)

EC50 (Kallikrein-7): > 69.5 µM (inactive)
SMILES: Cc1ccc(/C=N/c2ccccc2C(N)=O)cc1

IC50 (Protein Tat): 47.4 µM (inconclusive)
IC50 [12]: 30.2 µM (not active)
SMILES: CN(C)c1ccc(NC(=O)CSc2nc3ccccc3c(=O)n2C2CCCCC2)cc1
CC50 [11]: > 40 µM (active)

IC50 [13]: 4.49 µM (active)
SMILES: O=C(Oc1ccccc1Cl)c1ccccc1P(=O)(O)O

IC50 [13]: 5.59 µM (active)
SMILES: COc1cccc(CN2CC(=O)C(c3nc(-c4ccc(Cl)cc4)cs3)=C2N)c1

IC50 [12]: 17.3 µM (active)
SMILES: Cc1cccc2cc(C(c3nnnn3C(C)(C)C)N3CCN(C(=O)c4ccco4)CC3)c(=O)[nH]c12 (stereo not drawn)

EC50 (Kallikrein-7): 7.44 µM (active)
SMILES: C[C@H](O)[C@@H]1C(=O)N2CCc3c([nH]c4ccccc34)[C@@H]2C[C@@H]1N(C)S(=O)(=O)c1ccccc1
